Assays:
[1] = tested on: rat high fat, high cholesterol diet model; assay: Rat High Fat, High Cholesterol Diet Model; type: in vivo; conditions: HFHC diet rats; for HDL / LDL / VLDL: once daily perorally for seven days, serum VAP analysis, compound 13 at 3, 10, 30 mg/kg; for HDL / LDL / VLDL / blood glucose: compound 10A at 3, 10, or 30 mg/kg, compound 5A at 100 mg/kg; for blood glucose: seven days dosing
Description: Fibrate and statin derivatives, alone and in combination, are tested for effects on cholesterol and lipid profiles in a rat high fat diet model for example as described in Ghibaudi et al. (2002) Obes Res 10:956-63, Ricci and Levin (2003) Am J Physiol Regul Integr Comp Physiol 285:R610-8, and Gao et al. (2002) 936:87-90. Alternatively, animals are fed either a normal diet or a chow supplemented with added fat and/or cholesterol as described in Krause et al (1994) Pharm Res Vol 29, No. 4, Nishina (1993) J of Lipid Res vol 43. and Gajda et al. (2007) Animal Lab News. Based on the specific chows used in these reports, we fed animals a diet consisting of 40% fat, 1% cholesterol, and 0.5% cholic acid (catalog #D01061201, Research Diets, New Brunswick, N.J. 08901). After at least a week on this diet, animals (6-8/group) are dosed once daily perorally with 300 uL test compounds in PEG 400 or suitable vehicle. Groups are dosed for at least one week before whole blood samples are taken for analysis. Blood serum is analyzed using Vertical Auto Profile (VAP; Atherotech, Inc., Birmingham, Ala.) analysis similar to as described in Kulkami (2006) Clin Lab Med 26:787-802.
Similarly, when tested in this assay, Compound 5A [(E)-4-(3,5-dimethoxystyryl)phenyl 2-(4-(4-chlorobenzoyl)phenoxy)-2-methylpropanoate] was associated with decreased LDL and VLDL, no change in blood glucose, and increased HDL. Graphical depictions showing the LDL, VLDL and HDL analyses for compounds 10A and 5A are shown in FIGS. 1, 2, and 3 respectively. Compound 13 (4-(nitrooxy)butyl 2-(4-(4-chlorobenzoyl)phenoxy)-2-methylpropanoate) was also tested in this assay. FIGS. 4-6 are graphs showing that Compound 13 decreased LDL (FIG. 4) and VLDL (FIG. 5) and increased HDL (FIG. 6). Fenofibrate was also tested in this assay at 2, 6.8 and 20.5 mg/kg (FIGS. 4-6) which are equimolar equivalents (for the fenofibric acid moiety) of Compound 10A dosed at […]. Similar untested dose equivalent amounts to Compound 13 at 3, 10, and 30 mg/kg would be 2.5, 8.3, and 24.8 mg/kg of fenofibrate. In these experiments animals (n=6 per group) were fed either a normal chow (chow) or high fat high cholesterol chow (HFHC; 40% fat, 1% cholesterol, 0.5% cholic acid) diet for one week before test compound administration. Animals received either no test compound (“naïve”), vehicle only (PEG 400) or test compound (compound 10A at 3, 10, or 30 mg/kg, compound 5A at 100 mg/kg, compound 13 at 3, 10, 30 mg/kg, or fenofibrate at 2, 6.8, or 20.5 mg/kg) for seven days before whole blood samples were taken for analysis. […] Compound 8A may be useful for another contemplated use described herein however.

[2] = tested on: ob/ob mice; assay: Obese (ob/ob) Mouse Model, blood glucose; type: in vivo; conditions: ob/ob mice on high fat chow, perorally once daily for three weeks, days 7, 14, 21; Compound 10A 30 and 100 mg/kg, Compound 121 43 or 1000 mg/kg, fenofibrate 68 mg/kg
Description: The increased expression of plasma lipids in ob/ob mice make them a useful model for the study of drugs designed to lower cholesterol. In these experiments animals (n=10 per group) were fed a high fat chow (HF; 60% fat,) for one week before test compound administration and continued on this diet for the duration of the experiment. Animals received either vehicle only (PEG 400), or test compound (Compound 121 (resveratrol) at 43 or 1000 mg/kg, Compound 10A at 30 or 100 mg/kg, or fenofibrate at 68 mg/kg) perorally once daily for a total of three weeks. Blood samples were collected weekly for the determination of fasting glucose levels (One touch Ultra, LifeScan Inc). Blood serum was analyzed after three weeks using Vertical Auto Profile (VAP; Atherotech, Inc., Birmingham, Ala.) analysis similar to as described in Kulkami (2006) Clin Lab Med 26:787-802. […] 43 mg/kg of compound 121 (resveratrol) and 68 mg/kg of fenofibrate are the equimolar equivalents to the amounts of resveratrol and fenofibric acid moieties in 100 mg/kg of Compound 10A. […] FIG. 8 is a pharmacokinetic profile (using the methodologies as described herein) analyzing fenofibric acid levels in blood plasma of ob/ob mice dosed with either 68 mg/kg of fenofibrate, or 30 mg/kg or 100 mg/kg of Compound 10A.

[3] = Pharmacokinetic profile in blood plasma of ob/ob mice (LC/MS-MS); type: in vivo, mouse
Description: The increased expression of plasma lipids in ob/ob mice make them a useful model for the study of drugs designed to lower cholesterol. In these experiments animals (n=10 per group) were fed a high fat chow (HF; 60% fat,) for one week before test compound administration and continued on this diet for the duration of the experiment. Animals received either vehicle only (PEG 400), or test compound (Compound 121 (resveratrol) at 43 or 1000 mg/kg, Compound 10A at 30 or 100 mg/kg, or fenofibrate at 68 mg/kg) perorally once daily for a total of three weeks. Blood samples were collected weekly for the determination of fasting glucose levels (One touch Ultra, LifeScan Inc). Blood serum was analyzed after three weeks using Vertical Auto Profile (VAP; Atherotech, Inc., Birmingham, Ala.) analysis similar to as described in Kulkami (2006) Clin Lab Med 26:787-802. […]
(§1) Various pharmacokinetic parameters were calculated by collecting plasma samples from animals dosed with a test compound and analyzed by LC/MS-MS. […] Concentrations were determined by relative responses to an internal standard and calculated based on a standard concentration curve of the test compound. […] Oral Bioavailability (Fn) was calculated using the equation: F=(AUCoral/AUCIV)*DoseIV.Doseoral). Cmax and Tmax are determined by visual inspection of the oral concentration curve. […]

[4] = Pharmacokinetics in rat high fat high cholesterol diet model (LC/MS-MS); type: in vivo; conditions: oral administration, vs compound 121 (resveratrol)
Description: Similarly, when tested in this assay, Compound 5A [(E)-4-(3,5-dimethoxystyryl)phenyl 2-(4-(4-chlorobenzoyl)phenoxy)-2-methylpropanoate] was associated with decreased LDL and VLDL, no change in blood glucose, and increased HDL. Graphical depictions showing the LDL, VLDL and HDL analyses for compounds 10A and 5A are shown in FIGS. 1, 2, and 3 respectively. Compound 13 (4-(nitrooxy)butyl 2-(4-(4-chlorobenzoyl)phenoxy)-2-methylpropanoate) was also tested in this assay. FIGS. 4-6 are graphs showing that Compound 13 decreased LDL (FIG. 4) and VLDL (FIG. 5) and increased HDL (FIG. 6). Fenofibrate was also tested in this assay at 2, 6.8 and 20.5 mg/kg (FIGS. 4-6) which are equimolar equivalents (for the fenofibric acid moiety) of Compound 10A dosed at […]. Similar untested dose equivalent amounts to Compound 13 at 3, 10, and 30 mg/kg would be 2.5, 8.3, and 24.8 mg/kg of fenofibrate. […]
as §1

[5] = tested on: ob/ob mice; conditions: fenofibrate 100 mg/kg; McCarmona et al. (2005); cited from earlier work

SMILES	HDL [1]	LDL [1]	VLDL [1]	blood glucose [1]	blood glucose (fasting), change compared to day 0 [2]	also measured
CC(C)(Oc1ccc(C(=O)c2ccc(Cl)cc2)cc1)C(=O)Oc1ccc(/C=C/c2cc(O)cc(O)c2)cc1.Cl [Compound 10A, (E)-4-(3,5-dihydroxystyryl)phenyl 2-(4-(4-chlorobenzoyl)phenoxy)-2-methylpropanoate]	increased	dose related decreases	dose related decreases	decreased	statistically significant (when compared to day 0) decreases	fenofibric acid exposure in blood plasma ([3]; ob/ob mice, 30 mg/kg Compound 10A as compared to 68 mg/kg fenofibrate): less fenofibric acid exposure; resveratrol pharmacokinetic profile ([3]; obese mouse model, oral administration, 100 mg/kg Compound 10A vs 43 mg/kg compound 121 (resveratrol)): different resveratrol pharmacokinetic profile; resveratrol pharmacokinetic profile [4]: different resveratrol pharmacokinetic profile
COc1cc(/C=C/c2ccc(OC(=O)C(C)(C)Oc3ccc(C(=O)c4ccc(Cl)cc4)cc3)cc2)cc(OC)c1 [Compound 5A, (E)-4-(3,5-dimethoxystyryl)phenyl 2-(4-(4-chlorobenzoyl)phenoxy)-2-methylpropanoate]	increased	decreased	decreased	no change		
CC(C)OC(=O)C(C)(C)Oc1ccc(C(=O)c2ccc(Cl)cc2)cc1 [fenofibrate, 2-[4-(4-chlorobenzoyl)phenoxy]-2-methyl-propanoic acid, 1-methylethyl ester]					neither Compound 121 (resveratrol; dosed at 43 or 1000 mg/kg) or fenofibrate (dosed at 68 mg/kg) resulted in statistically significant changes	blood glucose in ob/ob mice [5]: shown to decrease blood glucose
CC(=O)Oc1cc(/C=C/c2ccc(OC(=O)C(C)(C)Oc3ccc(C(=O)c4ccc(Cl)cc4)cc3)cc2)cc(OC(C)=O)c1 [Compound 8A, (E)-5-(4-(2-(4-(4-chlorobenzoyl)phenoxy)-2-methylpropanoyloxy)styryl)-1,3-phenylene diacetate]						efficacy in rat high fat, high cholesterol diet model [1]: does not show any efficacy; melting point: 112 to 113 °C
Oc1ccc(/C=C/c2cc(O)cc(O)c2)cc1 [Compound 121, (E)-5-(4-hydroxystyryl)benzene-1,3-diol]					neither Compound 121 (resveratrol; dosed at 43 or 1000 mg/kg) or fenofibrate (dosed at 68 mg/kg) resulted in statistically significant changes	
CC(C)(Oc1ccc(C(=O)c2ccc(Cl)cc2)cc1)C(=O)OCCCCO[N+](=O)[O-] [Compound 13, 4-(nitrooxy)butyl 2-(4-(4-chlorobenzoyl)phenoxy)-2-methylpropanoate]	increased	decreased	decreased			

From patent US20090054450A1, “COMPOSITIONS AND METHODS OF USE FOR TREATING OR PREVENTING LIPID RELATED DISORDERS” (IRONWOOD PHARMACEUTICALS, INC., priority 2007, published 2009)
